Laboratory results taken from patent US9139568B2 (Merck Patent GmbH, priority 2011, dated 2015).

Biological target: P70S6K (Homo sapiens (Human), UniProt P23443, T412E)
Experiment: P70S6K Enzyme Assay
Format: biochemical
Conditions: P70S6K T412E mutant, 24 μM ATP, mobility shift (Caliper)
Protocol: P70S6K inhibitor compounds are diluted and plated in 96 well plates. […] The reaction is incubated for 90 min at 25° C., before the addition of 10 mM EDTA to stop the reaction. The proportion of substrate and product (phosphorylated) peptide is analysed on a Caliper Life Sciences Lab Chip 3000, using a pressure of −1.4 psi, and upstream and downstream voltages of −3000 and −700 respectively. Product peaks are resolved before substrate peaks on the resulting chromatograms.

Sequence of P70S6K (P23443 1-421 T412E): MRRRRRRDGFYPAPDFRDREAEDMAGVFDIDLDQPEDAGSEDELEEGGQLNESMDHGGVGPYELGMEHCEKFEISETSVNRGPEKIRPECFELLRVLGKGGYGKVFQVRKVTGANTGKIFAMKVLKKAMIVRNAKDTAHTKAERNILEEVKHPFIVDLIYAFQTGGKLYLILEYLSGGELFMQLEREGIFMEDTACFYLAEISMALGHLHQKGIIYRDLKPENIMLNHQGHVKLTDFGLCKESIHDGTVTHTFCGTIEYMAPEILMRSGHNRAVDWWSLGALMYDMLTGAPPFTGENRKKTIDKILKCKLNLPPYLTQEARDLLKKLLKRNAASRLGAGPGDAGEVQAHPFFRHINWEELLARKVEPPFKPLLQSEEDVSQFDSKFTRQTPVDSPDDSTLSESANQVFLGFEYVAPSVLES

| IC50 [nM] | SMILES |
| --- | --- |
| 350 | NC(=O)c1ccc(N2CCC(c3ccc(C(F)(F)F)cc3)C(N)C2)c2cncnc12 (racemic) [Example 83, 5-(3-amino-4-(4-(trifluoromethyl)phenyl)piperidin-1-yl)quinazoline-8-carboxamide] |
| 250 | NC(=O)c1ccc(N2CC[C@H](c3ccc(F)cc3)[C@H](N)C2)c2cncnc12 (racemic) [Example 86, 5-[(3S,4R)-3-Amino-4-(4-fluoro-phenyl)-piperidin-1-yl]-quinazoline-8-carboxylic acid amide] |
| 7100 | NC(=O)c1ccc(N2CC[C@H](c3ccc(F)cc3)[C@@H](N)C2)c2cncnc12 (racemic) [Example 87, 5-[(3R,4R)-3-Amino-4-(4-fluoro-phenyl)-piperidin-1-yl]-quinazoline-8-carboxylic acid amide] |
| 17100 | NC(=O)c1ccc(N2CC[C@H](c3cccc(F)c3)[C@H](N)C2)c2cncnc12 (racemic) [Example 88, 5-[(3S,4R)-3-Amino-4-(3-fluoro-phenyl)-piperidin-1-yl]-quinazoline-8-carboxylic acid amide] |
| 2400 | NC(=O)c1ccc(N2CC[C@H](c3cccc(F)c3)[C@@H](N)C2)c2cncnc12 (racemic) [Example 89, 5-[(3R,4R)-3-Amino-4-(3-fluoro-phenyl)-piperidin-1-yl]-quinazoline-8-carboxylic acid amide] |
| 510 | NC(=O)c1ccc(N2CCC(CNC(=O)c3cc(F)ccc3F)C2)c2cncnc12 (racemic) [Example 106, 5-(3-((2,5-difluorobenzamido)methyl)pyrrolidin-1-yl)quinazoline-8-carboxamide] |
| 260 | NC(=O)c1ccc(N2CCC(CNC(=O)c3ccc(F)cc3F)C2)c2cncnc12 (racemic) [Example 112, 5-{3-[(2,4-Difluoro-benzoylamino)-methyl]-pyrrolidin-1-yl}-quinazoline-8-carboxylic acid amide] |
| 9.9 | NC(=O)c1ccc(NC2CNCCC2c2ccc(C(F)(F)F)c(F)c2)c2cncnc12 (single isomer, unassigned) [Example 5] |
| 54 | NC(=O)c1ccc(N[C@@H]2CNCC[C@H]2c2ccc(C(F)(F)F)c(F)c2)c2cncnc12 (single isomer, unassigned) [Example 6] |
| 31 | NC(=O)c1ccc(NC2CNC[C@@H]2c2cccc(OC(F)(F)F)c2)c2cccnc12 (single isomer, unassigned) [Example 22] |
| 690 | NC(=O)c1ccc(N[C@@H]2CNC[C@H]2c2cccc(OC(F)(F)F)c2)c2cccnc12 (single isomer, unassigned) [Example 23] |
| 2150 | NC(=O)c1ccc(N2CC[C@@](N)(C(=O)Nc3ccccc3)C2)c2cncnc12 (single isomer, unassigned) [Example 84] |
| 11500 | NC(=O)c1ccc(N2CC[C@](N)(C(=O)Nc3ccccc3)C2)c2cncnc12 (single isomer, unassigned) [Example 85] |
| 470 | NC(=O)c1ccc(N2CC[C@H](CNC(=O)c3ccc(F)c(F)c3)C2)c2cncnc12 (single isomer, unassigned) [Example 114] |
| 450 | NC(=O)c1ccc(N2CC[C@@H](CNC(=O)c3ccc(F)c(F)c3)C2)c2cncnc12 (single isomer, unassigned) [Example 115] |
| 520 | NC(=O)c1ccc(N2CC[C@@](N)(C(=O)Nc3ccc(F)c(C(F)(F)F)c3)C2)c2cncnc12 (single isomer, unassigned) [Example 116] |
| 380 | NC(=O)c1ccc(N2CC[C@](N)(C(=O)Nc3ccc(F)c(C(F)(F)F)c3)C2)c2cncnc12 (single isomer, unassigned) [Example 117] |
| > 1000 | NC(=O)c1ccc(NCC2(C(=O)Nc3ccccc3)CCNCC2)c2cncnc12 [Example 14, 5-(((4-(phenylcarbamoyl)piperidin-4-yl)methyl)amino)quinazoline-8-carboxamide] |
| > 1000 | CNC[C@@H](Nc1ccc(C(N)=O)c2ncccc12)c1cccc(F)c1 [Example 16, (S)-5-((1-(3-fluorophenyl)-2-(methylamino)ethyl)amino)quinoline-8-carboxamide] |

| IC50 [nM] | SMILES |
| --- | --- |
| > 1000 | NC(=O)c1ccc(NC2(c3ccccc3)CNC2)c2cccnc12 [Example 19, 5-((3-phenylazetidin-3-yl)amino)quinoline-8-carboxamide] |
| 350 | NC(=O)c1ccc(NC2CNC[C@H]2c2cc(F)cc(Cl)c2)c2cccnc12 (stereo partly drawn) [Example 26, 5-(((4R)-4-(3-chloro-5-fluorophenyl)pyrrolidin-3-yl)amino)quinoline-8-carboxamide] |
| 578 | NC(=O)c1ccc(NC(=O)C2C[C@@H](c3ccccc3)CN2)c2cccnc12 (stereo partly drawn) [Example 28, 5-((4S)-4-phenylpyrrolidine-2-carboxamido)quinoline-8-carboxamide] |
| > 1000 | NC(=O)c1ccc(NC(=O)C2NC[C@@H]2c2ccccc2)c2cccnc12 (stereo partly drawn) [Example 30, 5-((3S)-3-phenylazetidine-2-carboxamido)quinoline-8-carboxamide] |
| 875 | NC(=O)c1ccc(NCc2ccc(F)cc2)c2cccnc12 [Example 31, 5-(4-Fluorobenzylamino)-quinoline-8-carboxamide] |
| > 1000 | NC(=O)c1ccc(NCc2ccccc2F)c2cccnc12 [Example 32, 5-(2-Fluorobenzylamino)-quinoline-8-carboxamide] |
| 140 | NC(=O)c1ccc(NCc2cccc(Cl)c2)c2cccnc12 [Example 34, 5-(3-Chlorobenzylamino)-quinoline-8-carboxamide] |
| > 1000 | NC(=O)c1ccc(NCc2ccc(F)c(F)c2)c2cccnc12 [Example 35, 5-(3,4-Difluorobenzylamino)-quinoline-8-carboxamide] |
| > 1000 | NC(=O)c1ccc(NCc2cc(F)c(F)c(F)c2)c2cccnc12 [Example 36, 5-(3,4,5-trifluorobenzylamino)-quinoline-8-carboxamide] |
| 695 | NC(=O)c1ccc(NCc2ccc(F)c(C(F)(F)F)c2)c2cccnc12 [Example 37, 5-(4-Fluoro-3-trifluoromethylbenzylamino)-quinoline-8-carboxamide] |
| > 1000 | NC(=O)c1ccc(NCc2ccc(Cl)c(C(F)(F)F)c2)c2cccnc12 [Example 38, 5-(4-Chloro-3-trifluoromethylbenzylamino)-quinoline-8-carboxamide] |
| > 1000 | NC(=O)c1ccc(NC(CN2CCCC2)c2ccccc2)c2cccnc12 (stereo not shown) [Example 39] |
| > 1000 | NC(=O)c1ccc(NCCc2ccccc2)c2cccnc12 [Example 40, 5-(Phenylethylamino)-quinoline-8-carboxamide] |
| > 1000 | NC(=O)c1ccc(NCCCc2ccccc2)c2cccnc12 [Example 41, 5-(Phenylpropylamino)-quinoline-8-carboxamide] |
| 680 | NC(=O)c1ccc(NCc2ccccc2)c2cccnc12 [Example 42, 5-(Benzylamino)quinoline-8-carboxamide] |
| 1000 | NC(=O)c1ccc(N2CCN(c3ccc(Cl)cc3)CC2)c2cncnc12 [Example 93, 5-[4-(4-chloro-phenyl)-piperazin-1-yl]-quinazoline-8-carboxylic acid amide] |
| 260 | NC(=O)c1ccc(N2CCC(CNC(=O)Cc3ccccc3)C2)c2cncnc12 (stereo not shown) [Example 118] |
| 400 | NC(=O)c1ccc(N2CCN(c3ccccc3Cl)CC2)c2cncnc12 [Example 119, 5-[4-(2-chloro-phenyl)-piperazin-1-yl]-quinazoline-8-carboxylic acid amide] |
